Laboratory results: PMC7785802, “Therapeutic Efficacy of a Trichinella Spiralis Paramyosin-Derived Peptide Modified With a Membrane-Targeting Signal in Mice With Antigen-Induced Arthritis” (Frontiers in Microbiology, 2020)

Assays:
[1] = tested on: membrane attack complex (MAC); assay: MAC (C9) deposition in AIA knee joints (immunofluorescence); assay type: in vivo; conditions: 40 μg peptide + 25 μg mBSA intraarticular; day 3 post-AIA induction; anti-mouse C9 immunofluorescence; n = 6
Procedure: AIA was induced in male C57BL/6J wildtype mice (8–10 weeks of age) according to a previously described protocol (Ebbinghaus et al., [2017]) with minor modifications. Briefly, the mice were intraperitoneally injected with 200 ng pertussis toxin (List Biological Laboratories, California, USA) prior to being subcutaneously immunized with 100 μg methylated bovine serum albumin (mBSA; Sigma-Aldrich, St. Louis, Missouri, USA) emulsified in Freund's complete adjuvant (Sigma-Aldrich). The immune response was boosted with identical subcutaneous mBSA immunizations at 14 and 21 days after the first immunization. […] Every day after AIA induction (and intraarticular peptide treatment), the difference in the joint diameter (swelling in mm) between the right and left knee joints in each mouse was assessed using a digital micrometer to evaluate the AIA severity. Each joint was measured three times and the mean diameter was calculated and recorded. […]
To assess the therapeutic effects of the peptides on AIA, the mice were euthanized on day 3 post-AIA induction. […] The degree of histopathologic tissue damage was quantified using the following previously described cumulative score for evaluating disease severity (Durigutto et al., [2013]). […]

C9 / MAC = conditions: previous study; ref Zhao et al., 2014; cited from earlier work
From the text: Paramyosin, a dimeric fibrillar protein, not only forms the thick myofilaments of invertebrate muscle, but also occurs on the surface of helminths and serves as a potential modulator of the host immune system by interacting with human collagen, calgranulin and so on (Zhao et al., [2014]).

[2] = tested on: mice with antigen-induced arthritis (AIA); assay: Histology (HE) of AIA knee joints; assay type: in vivo, mouse; conditions: for synovial histology (HE): 40 μg peptide + 25 μg mBSA intraarticular, day 3 post-AIA induction, n = 6
Procedure: (§1) AIA was induced in male C57BL/6J wildtype mice (8–10 weeks of age) according to a previously described protocol (Ebbinghaus et al., [2017]) with minor modifications. Briefly, the mice were intraperitoneally injected with 200 ng pertussis toxin (List Biological Laboratories, California, USA) prior to being subcutaneously immunized with 100 μg methylated bovine serum albumin (mBSA; Sigma-Aldrich, St. Louis, Missouri, USA) emulsified in Freund's complete adjuvant (Sigma-Aldrich). The immune response was boosted with identical subcutaneous mBSA immunizations at 14 and 21 days after the first immunization. At 28 days after the initial immunization, the right knee joint of each mouse was intraarticularly injected with 10 μl PBS as the control, while the left knee joint received either 10 μl PBS only (normal group), 25 μg mBSA (to induce AIA) in 10 μl PBS (AIA-only group), 40 μg modified peptide with 25 μg mBSA in 10 μl PBS (modified peptide+AIA group), or 40 μg original peptide with 25 μg mBSA in 10 μl PBS (original peptide+AIA group). Every day after AIA induction (and intraarticular peptide treatment), the difference in the joint diameter (swelling in mm) between the right and left knee joints in each mouse was assessed using a digital micrometer to evaluate the AIA severity. Each joint was measured three times and the mean diameter was calculated and recorded. […]
To assess the therapeutic effects of the peptides on AIA, the mice were euthanized on day 3 post-AIA induction. […] The degree of histopathologic tissue damage was quantified using the following previously described cumulative score for evaluating disease severity (Durigutto et al., [2013]). […] Additionally, according to the immunofluorescence protocol, tissue deposition of MAC was assessed by immunofluorescence assay with incubating rabbit anti-mouse C9 IgG (Sigma-Aldrich) at a 1:200 dilution overnight at 4°C followed by incubation with FITC-labeled goat anti-rabbit IgG (DAKO, Glostrup, Denmark) at a 1:200 dilution for an additional 60 min at room temperature (Lei et al., [2020]). […]

[3] = tested on: mice with antigen-induced arthritis (AIA); assay: Knee joint swelling in antigen-induced arthritis (AIA); assay type: in vivo, mouse; conditions: 40 μg peptide + 25 μg mBSA in 10 μl PBS intraarticular; days 2, 3 and 4 after induction; n = 6; **p < 0.01
Procedure: as §1

mouse ATDC5 cells = assay: Peptide binding to cell surface, confocal laser scanning microscopy; assay type: cell-based; conditions: biotin-labeled peptide 260 nmol, 540 nmol, 1.08 mmol; streptavidin-FITC, DAPI
From the text: The mouse ATDC5 chondrogenic cell line is an important chondrocyte model that has been widely used in the study of chondrocyte proliferation and differentiation. This cell line was used to evaluate the membrane-binding ability of the modified peptide, as articular cartilage (which contains chondrocytes) is one of the main cellular components in the joint cavity. The cells were purchased from Guangzhou Jennio Biotech Co., Ltd. (Guangzhou, China) and maintained in Dulbecco's Modified Eagle Medium (DMEM, ThermoFisher, America) supplemented with 10% fetal bovine serum (FBS, Gibco, Australia) at 37°C in a humidified atmosphere with 5% CO2. The 5th−10th passages of the cells were used in the study.
To assess the binding ability of the modified peptide to the cell membrane, the three peptides were labeled with biotin at the C-terminus. […] The cells were washed and resuspended in PBS and then the binding of the peptides to the cell membrane was assessed by flow cytometry (BD Biosciences, California, USA). […] The binding of the peptides to the cell membrane was then assessed by staining with streptavidin-FITC (eBioscience). […] They were then analyzed by confocal laser scanning microscopy (Leica, Germany).
Figure 3 Modified peptide non-specifically bound to the cell surface. (A) Binding of peptides to the surface of mouse ATDC5 cells measured by flow cytometry. […]

Substance | MAC deposition in synovial connective tissue [1] | inhibition of MAC assembly (C9 / MAC) | synovial histology (HE) [2] | joint swelling (left vs right knee diameter) compared to AIA-only mice [3] | binding to surface of ATDC5 cells (confocal microscopy) (mouse ATDC5 cells) | histopathological scores ([2]; 40 μg peptide intraarticular at the time of AIA induction, cumulative score (synovial hyperplasia, leukocyte infiltration, fibrosis), no numbers given)
VSMGKSLSSKVYVM [original peptide, tetradecapeptide derived from Trichinella spiralis paramyosin (Ts-pmy)] | clearly detected | inhibited the assembly of MAC | severe edema, hyperplasia, and inflammatory cell infiltration compared to normal joints |  |  | 
Myr-GSSKSPSKKKKKKPG-ACP-VSMGKSLSSKVYVM [modified peptide, Ts-pmy-derived peptide modified with a membrane-targeting signal] | significantly weaker |  | milder synovial hyperplasia and inflammatory cell infiltration compared to the AIA-only or original peptide+AIA mice | significant reductions in joint swelling on days 2, 3, and 4 after disease induction | could bind to the surface of mouse ATDC5 cells | significantly decreased
